According to PMC1968196, “Effect of anthracycline analogs on photolabelling of p-glycoprotein by [125I]iodomycin and [3H]azidopine: relation to lipophilicity and inhibition of daunorubicin transport in multidrug resistant cells” (British Journal of Cancer, 1993):
“And” between values parts separate entries of the source, which are not always exact repeats. Identical values can stand only once. Like-named read-outs stand apart in the source and are kept apart here.

How the values were obtained:
[1] = pH 7.45
Excerpt: (§1) Br. J. Cancer (1993), 67, 226 231 ? Macmillan Press Ltd., 1993 Effect of anthracycline analogs on photolabelling of p-glycoprotein by I'25 liodomycin and [3Hlazidopine: Relation to lipophilicity and inhibition of daunorubicin transport in multidrug resistant cells E. Frichel*, E.J.F. Demant2, M. Sehested3 & N.I. Nissen' 'Department of Medicine and Hematology, L 4042, Rigshospitalet-University Hospital, 9, Blegdamsvej, DK-2100 Copenhagen; 2Department of Biochemistry C, The Panum Institute, University of Copenhagen, DK-2200 Copenhagen; 3Department of Pathology, Sundby Hospital, DK-2300 Copenhagen, Denmark. […] We photoaffinity labelled P-glycoprotein in daunorubicin (DNR) resistant Ehrlich ascites tumour cells (EHR2/DNR + ) with a ['25I]iodinated Bolton-Hunter derivative of daunorubicin ([1251]iodomycin) and with [3H]azidopine. […] Anthracyclines are among the most valuable cytostatic agents in clinical use. Their usefulness is, however, limited by the occurrence of tumour cells with the multidrug resistance (MDR) phenotype (Beck, 1987; Bliek & Borst, 1989; Endicott & Ling, 1989; Kaye & Merry, 1985; Moscow & Cowan, 1988). MDR cells have an enhanced amount of a 150- 170 kDa plasma membrane glycoprotein, P-glycoprotein (Pgp) (Kartner et al., 1983 and 1985; Cornwell et al., 1986; Bradley et al., 1988; Beck, 1991a; Roninson, 1991), that may function as a low-specificity transport protein to facilitate the outward transport of cytotoxic agents including the anthracyclines. Thus, increased drug efflux and therefore decreased accumulation is seen in MDR cells not only to the drug for which resistance is developed but also to a wide spectrum of chemically unrelated cytostatics (Bradley et al., 1988; Fojo et al., 1985). […] The aim of this study was to examine these analogs for their ability to com- pete for ligand binding to Pgp and thus service as inhibitors for the outward drug transport system in MDR cells. Anthracycline inter-actions with Pgp were assessed using the specific photolabelling of the protein with [251I]iodomycin, a ['251]iodinated Bolton-Hunter derivative of DNR (Busche et al., 1989a) and with [3H]azidopine ([3H]AZP) which photolabels Pgp in plasma membrane vesicles from EHR2/ DNR + cells (Sehested et al., 1990) as well as in whole cells (Safa et al., 1987; Friche et al., 1990c). […] Material and methods Chemicals Duanorubicin (DNR); AdriamycinR (Doxorubicin/HCl, DOX); 4'-deoxy-4'-iododoxorubicin (DIDOX); and 4- demethoxy-DNR were kindly supplied from Farmitalia, Carlo Erba (Milan, Italy). N,N-dibenzyl-DNR was a gift from Dr Nicholas Bachur, (Baltimore, MD) and N- benzyladriamycin-14-valerate (AD 198) a gift from Professor M. Israel (Memphis, TN). Mitoxantrone was purchased from Lederle (New Jersey, USA), Aclacinomycin A from Lund- beck & Co A/S (Copenhagen, Denmark), OncovinR (Vincristine/HCl, VCR) from Eli Lilly Deutschland GMBH (Giessen, Germany), Cremophor EL from BASF Aktiengesellschaft (Ludwigshafen, Germany), and Tween 80 from the Sigma Chemical Co. (St. Louis, MO). ['251]-Bolton- Hunter reagent (2000 Ci mmol 1), [3H]AZP (42 Ci mmol- ') and non-radioactive AZP were purchased from Amersham International (Amersham, UK). All other chemicals were of analytical grade. Organic solvents were distilled prior to use. Triethylamine was distilled over ninhydrin and anhydrous methanol was stored over molecular sieve (3 A). Tumour cells Cells were either the wild-type Ehrlich ascites tumor line (EHR2) or the corresponding DNR-resistant line (EHR2/ DNR + ) (Dan0, 1971) displaying both the MDR phenotype (Sehested et al., 1990) and as recently shown, decreased Correspondence: E. Friche. Received 22 April 1992; and in revised form 21 September 1992.

P-glycoprotein [2] = assay: [125I]iodomycin photolabelling of Pgp in EHR2/DNR+ cells; format: binding, mice
Excerpt: as §1

P-glycoprotein [3] = assay: [3H]azidopine photolabelling of Pgp in EHR2/DNR+ cells; format: binding, mice; conditions: [3H]AZP 0.4 µM
Excerpt: as §1

EHR2/DNR+ cells [4] = assay: Modulating effect on steady-state DNR accumulation in EHR2/DNR+ cells; format: cell-based, mice; conditions: equimolar concentrations (5 µM)
Excerpt: (§2) Br. J. Cancer (1993), 67, 226 231 ? Macmillan Press Ltd., 1993 Effect of anthracycline analogs on photolabelling of p-glycoprotein by I'25 liodomycin and [3Hlazidopine: Relation to lipophilicity and inhibition of daunorubicin transport in multidrug resistant cells E. Frichel*, E.J.F. Demant2, M. Sehested3 & N.I. Nissen' 'Department of Medicine and Hematology, L 4042, Rigshospitalet-University Hospital, 9, Blegdamsvej, DK-2100 Copenhagen; 2Department of Biochemistry C, The Panum Institute, University of Copenhagen, DK-2200 Copenhagen; 3Department of Pathology, Sundby Hospital, DK-2300 Copenhagen, Denmark. […] We photoaffinity labelled P-glycoprotein in daunorubicin (DNR) resistant Ehrlich ascites tumour cells (EHR2/DNR + ) with a ['25I]iodinated Bolton-Hunter derivative of daunorubicin ([1251]iodomycin) and with [3H]azidopine. […] Anthracyclines are among the most valuable cytostatic agents in clinical use. […] Anthracycline inter-actions with Pgp were assessed using the specific photolabelling of the protein with [251I]iodomycin, a ['251]iodinated Bolton-Hunter derivative of DNR (Busche et al., 1989a) and with [3H]azidopine ([3H]AZP) which photolabels Pgp in plasma membrane vesicles from EHR2/ DNR + cells (Sehested et al., 1990) as well as in whole cells (Safa et al., 1987; Friche et al., 1990c). […]

Pgp [5] = conditions: read-out: Kd for binding to Pgp, cited from earlier work
EHR2/DNR+ cells [6] = conditions: ref Friche et al., cited from earlier work
Pgp [7] = system: Pgp; set-up: method as in Safa et al. (1987); conditions: ref Safa et al., 1987; cited from earlier work
EHR2/DNR+ cells [8] = assay: Steady-state drug accumulation in EHR2 and EHR2/DNR+ cells; format: cell-based, mice
Excerpt: as §2, with “use. Their usefulness is, however, limited by the occurrence of tumour cells with the multidrug resistance (MDR) phenotype (Beck, 1987; Bliek & Borst, 1989; Endicott & Ling, 1989; Kaye & Merry, 1985; Moscow & Cowan, 1988). MDR cells have an enhanced amount of a 150- 170 kDa plasma membrane glycoprotein, P-glycoprotein (Pgp) (Kartner et al., 1983 and 1985; Cornwell et al., 1986; Bradley et al., 1988; Beck, 1991a; Roninson, 1991), that may function as a low-specificity transport protein to facilitate the outward transport of cytotoxic agents including the anthracyclines.” for “use.”

[9] = 10 µM drug (1000-fold molar excess), iodomycin 10 nM, 30 min 37°C
[10] = 40 µM drug (100-fold molar excess)
[11] = 5 µM modulator (500-fold molar excess)

Row | Compound | Lipid solubility (O/W), octanol/water partition coefficient [1] | Per cent inhibition of [125I]iodomycin photolabelling of Pgp (P-glycoprotein [2]; [9]) | Per cent inhibition of [125I]iodomycin photolabelling of Pgp (P-glycoprotein [2]; 20 µM drug, iodomycin 10 nM) [%] | Per cent inhibition of [125I]iodomycin photolabelling of Pgp (P-glycoprotein [2]; 40 µM drug, iodomycin 10 nM) [%] | Per cent inhibition of [3H]AZP photolabelling of Pgp (P-glycoprotein [3]; 10 µM drug) [%] | Per cent inhibition of [3H]AZP photolabelling of Pgp (P-glycoprotein [3]; 20 µM drug) [%] | Per cent inhibition of [3H]AZP photolabelling of Pgp (P-glycoprotein [3]; [10]) [%] | other results
1 | CC(=O)[C@]1(O)Cc2c(O)c3c(c(O)c2[C@@H](O[C@H]2C[C@H](N)[C@H](O)[C@H](C)O2)C1)C(=O)c1ccccc1C3=O [4-demethoxy-daunorubicin] | 13.08 | 35.9% | 52.2 | 58.3 | 1.5 | 3.6 | 19.8 | 
2 | CCCCC(=O)OCC(=O)[C@]1(O)Cc2c(O)c3c(c(O)c2[C@@H](O[C@H]2C[C@H](NCc4ccccc4)[C@H](O)[C@H](C)O2)C1)C(=O)c1c(OC)cccc1C3=O [AD-198, N-benzyladriamycin-14-valerate] | > 200 | 85% | 95.8 | > 99 | 74.1 | 81.7 | 90.9 | Per cent inhibition of [3H]AZP photolabelling of Pgp (P-glycoprotein [3]; 40 µM drug (100-fold molar excess), listed as Ad-198): about 90%
3 | CC[C@@]1(O)C[C@H](O[C@H]2C[C@H](N(C)C)[C@H](O[C@H]3C[C@H](O)[C@H](O[C@H]4CCC(=O)[C@H](C)O4)[C@H](C)O3)[C@H](C)O2)c2c(cc3c(c2O)C(=O)c2c(O)cccc2C3=O)[C@H]1C(=O)OC [Aclacinomycin A] |  | 22.6% | 52.0 | 75.3 | 65.3 | 74.7 | 85.7 | Effect on accumulation of DNR (EHR2/DNR+ cells [4]): did increase accumulation of DNR the most
4 | CCOC(=O)C1=C(C)NC(C)=C(C(=O)OCCNC(=O)c2ccc(N=[N+]=[N-])cc2)C1c1ccccc1C(F)(F)F (stereo not drawn) [Azidopine] |  | 67.9% |  |  |  |  |  | Per cent inhibition of [125I]iodomycin photolabelling of Pgp (P-glycoprotein [2]; 1 µM modulator): 6.7%; Per cent inhibition of [125I]iodomycin photolabelling of Pgp (P-glycoprotein [2]; 1 µM modulator, listed as AZP): hardly inhibited; Per cent inhibition of [125I]iodomycin photolabelling of Pgp (P-glycoprotein [2]; [11]): 50.0%; Per cent inhibition of [125I]iodomycin photolabelling of Pgp (P-glycoprotein [2]; 5 µM modulator (500-fold molar excess), listed as AZP): 50%; Kd (Pgp [5]; ref Safa et al., 1987): 1000 nM
5 | COc1cccc2c1C(=O)c1c(O)c3c(c(O)c1C2=O)C[C@@](O)(C(=O)CO)C[C@@H]3O[C@H]1C[C@H](N)[C@H](I)[C@H](C)O1 [DIDOX, 4'-deoxy-4'-iododoxorubicin] | 14.51 | 20.6% | 17.5 | 22.5 | 0 | 0 | 19.7 | Effect on accumulation of DNR (EHR2/DNR+ cells [6]; 1990b, Arcamone, 1985): did not increase DNR accumulation
6 | COc1cccc2c1C(=O)c1c(O)c3c(c(O)c1C2=O)C[C@@](O)(C(=O)CO)C[C@@H]3O[C@H]1C[C@H](N)[C@H](O)[C@H](C)O1 [Doxorubicin] | 1.22 | 0% | 0 | 16.8 | 0 | 10.5 | 11.0 | Effect on accumulation of DNR (EHR2/DNR+ cells [6]; 1990a): does not increase accumulation of DNR; Inhibition of [3H]AZP labelling of Pgp (Pgp [7]): 19%; Per cent inhibition of [125I]iodomycin photolabelling of Pgp (P-glycoprotein [2]; 10 µM drug (1000-fold molar excess), iodomycin 10 nM, 30 min 37°C, listed as DOX): did not cause significant inhibition; Per cent inhibition of [125I]iodomycin photolabelling of Pgp (P-glycoprotein [2]; 40 µM drug, iodomycin 10 nM, listed as DOX): 17% and 10-17%; Per cent inhibition of [3H]AZP photolabelling of Pgp (P-glycoprotein [3]; 40 µM drug (100-fold molar excess), listed as DOX): 10-17%
7 | O=C1c2c(O)ccc(O)c2C(=O)c2c(NCCNCCO)ccc(NCCNCCO)c21 [Mitoxantrone] | 5.06 | 42.9% | 56.9 | 58.8 | 7.5 | 15.6 | 19.5 | 
8 | COc1cccc2c1C(=O)c1c(O)c3c(c(O)c1C2=O)C[C@@](O)(C(C)=O)C[C@@H]3OC1CC(N(Cc2ccccc2)Cc2ccccc2)C(O)C(C)O1.Cl (stereo partly drawn) [N,N,-dibenzyl-daunorubicin] | > 200 | 52.4% | 97.3 | > 99 | 75.2 | 87.1 | 90.5 | Per cent inhibition of [125I]iodomycin photolabelling of Pgp (P-glycoprotein [2]; 20 µM drug, iodomycin 10 nM, listed as N,N-dibenzyl-DNR): 97%; Per cent inhibition of [3H]AZP photolabelling of Pgp (P-glycoprotein [3]; 40 µM drug (100-fold molar excess), listed as N,N-dibenzyl-DNR): about 90%; Effect on accumulation of DNR (EHR2/DNR+ cells [4]): did increase accumulation of DNR the most
9 | CC[C@]1(O)C[C@H]2CN(CCc3c([nH]c4ccccc34)[C@@](C(=O)OC)(c3cc4c(cc3OC)N(C=O)[C@H]3[C@@](O)(C(=O)OC)[C@H](OC(C)=O)[C@]5(CC)C=CCN6CC[C@]43[C@@H]65)C2)C1 [Vincristine] | 1.98 | 95% and 94.3% |  |  |  |  |  | Per cent inhibition of [125I]iodomycin photolabelling of Pgp (P-glycoprotein [2]; 1 µM modulator): 53.1%; Per cent inhibition of [125I]iodomycin photolabelling of Pgp (P-glycoprotein [2]; 1 µM modulator, listed as VCR): about 50%; Per cent inhibition of [125I]iodomycin photolabelling of Pgp (P-glycoprotein [2]; [11]): 78.6%; Per cent inhibition of [125I]iodomycin photolabelling of Pgp (P-glycoprotein [2]; 10 µM drug (1000-fold molar excess), iodomycin 10 nM, 30 min 37°C, listed as VCR): almost completely blocked
10 | COc1cccc2c1C(=O)c1c(O)c3c(c(O)c1C2=O)CC(O)(C(C)=O)CC3OC1CC(NC(=O)CCc2ccc(O)c(I)c2)C(O)C(C)O1 (stereo not drawn) [[125I]iodomycin] |  |  |  |  |  |  |  | Reduced steady-state accumulation in EHR2/DNR+ relative to EHR2 (EHR2/DNR+ cells [8]): ~5 fold; Steady-state accumulation (EHR2/DNR+ cells [8]; EHR2/DNR+ cells): 42 fmol 10-6 cells; Steady-state accumulation (EHR2/DNR+ cells [8]; EHR2 cells (wild type)): 207 fmol 10-6 cells; Kd (Pgp [5]; ref Busche et al., 1989b): 25 nM
